Measurements as given in US5462935A, “Cephalosporin compounds” (Lucky Limited, priority 1990, dated 1995).
≈ marks a conversion by molar mass, not a printed value. Where two headings read alike, the source gives them in different places.

How the values were obtained:
[1] = in vivo absorbency test (plasma concentration, pharmacokinetic parameters); set-up: species or system SD rats (male); details: rat, iv, 20 mg/kg, rats; for half-life / concentration at 1 min / concentration at 2.5 min / concentration at 5 min / concentration at 10 min / concentration at 20 min / concentration at 40 min / concentration at 1 h / concentration at 2 h / concentration at 3 h / AUC: plasma; for half-life / AUC: Two-Compartment Model; for concentration at 1 min / concentration at 2.5 min / concentration at 5 min / concentration at 10 min / concentration at 20 min / concentration at 40 min / concentration at 1 h / concentration at 2 h / concentration at 3 h: read-out: Plasma Conc.; for concentration at 1 h: 60 min; for concentration at 2 h: 120 min; for concentration at 3 h: 180 min; for AUC: read-out: ACU (converted); for dose excreted: urine, read-out: Urinary recovery
Procedure: In addition to the in vitro tests described above, in vivo absorbency tests for the two selected compounds of formulas (I-S-1) and (I-R-1), along with Ceftadizime, were carried out by administering intravenously, in a dose of 20 mg/kg, each of these two compounds into SD rats (male) weighing 220 to 340 g; […], which were analyzed by employing the bio-assay or agar well method. About 10 to 15 rats were used for each of the compounds.
Notes: (1) Two-Compartment Model
(3) Tested Animal: Rats(male; 220-340 g)

[2] = acute toxicity test, intravenous; details: mouse, in vivo, ICR mice, observed for 14 days
From the text: The results are shown in the last row of Table 2.

[3] = tested on: Salmonella typhimurium ATCC 14028; assay: minimal inhibitory concentration, two-fold agar dilution; assay type: cell-based; details: Salmonella enterica, Muller-Hinton agar, 37° C., 20 hours
Procedure: (§1) These NIC values were taken by employing a two-fold dilution method: that is, two-fold serial dilutions of each of the test compounds were made and dispersed in a Muller-Hinton agar medium; 2 μl of the standard test strain which had the 10^7 CFU (Colony Forming Unit) per ml was inoculated on the medium; and these were incubated at 37° C. for 20 hours.

[4] = tested on: Pseudomonas aerugionsa ATCC 27853; assay: as above; assay type: cell-based; details: ATCC27853, Muller-Hinton agar, 37° C., 20 hours
Procedure: as §1

[5] = tested on: Proteus mirabilis ATCC 25933; assay: as above; assay type: cell-based; details: ATCC25933, Muller-Hinton agar, 37° C., 20 hours
Procedure: as §1

[6] = tested on: Shigella sonnei ATCC 11060; assay: as above; assay type: cell-based; details: ATCC11060, Muller-Hinton agar, 37° C., 20 hours
Procedure: as §1

[7] = tested on: Staphylococcus aureus ATCC 6638p; assay: as above; assay type: cell-based; details: ATCC6638P, 20 h
Procedure: as §1

[8] = tested on: Citrobacter freundii ATCC 8090; assay: as above; assay type: cell-based; details: ATCC8090, Muller-Hinton agar, 37° C., 20 hours
Procedure: as §1

[9] = tested on: Streptococcus faecalis ATCC 29212; assay: as above; assay type: cell-based; details: Enterococcus faecalis, ATCC29212, Muller-Hinton agar, 37° C., 20 hours
Procedure: as §1

[10] = tested on: Morganella morganii ATCC 8076h; assay: as above; assay type: cell-based; details: ATCC8076H, 20 h
Procedure: as §1

[11] = tested on: Klebsiella pneumoniae ATCC 10031; assay: as above; assay type: cell-based; details: ATCC10031, Muller-Hinton agar, 37° C., 20 hours
Procedure: as §1

[12] = tested on: Providencia rettgeri ATCC 9250; assay: as above; assay type: cell-based; details: ATCC9250, Muller-Hinton agar, 37° C., 20 hours
Procedure: as §1

[13] = tested on: Serratia marcescens ATCC 27117; assay: as above; assay type: cell-based; details: ATCC27117, Muller-Hinton agar, 37° C., 20 hours
Procedure: as §1

ATCC 12228 = assay: as above; assay type: cell-based; details: Staphylococcus faecalis, ATCC12228, 20 h
Procedure: as §1

[14] = tested on: Enterobacter cloacae ATCC 27508; assay: as above; assay type: cell-based; details: ATCC27508, Muller-Hinton agar, 37° C., 20 hours
Procedure: as §1

[15] = tested on: Escherichia coli ATCC 10536; assay: as above; assay type: cell-based; details: ATCC10536, Muller-Hinton agar, 37° C., 20 hours
Procedure: as §1

[16] = tested on: Bacillus cereus ATCC 11778; assay: as above; assay type: cell-based; details: Bacillus cereus, ATCC11778, 20 h
Procedure: as §1

[17] = tested on: Escherichia coli ATCC 25922; assay: as above; assay type: cell-based; details: ATCC25922, Muller-Hinton agar, 37° C., 20 hours
Procedure: as §1

[18] = tested on: Pseudomonas aeruginosa ATCC 25619; assay: as above; assay type: cell-based; details: ATCC25619, Muller-Hinton agar, 37° C., 20 hours
Procedure: as §1

[19] = tested on: Shigella flexneri ATCC 11836; assay: as above; assay type: cell-based; details: ATCC11836, Muller-Hinton agar, 37° C., 20 hours
Procedure: as §1

[20] = tested on: Proteus vulgaris ATCC 6059; assay: as above; assay type: cell-based; details: ATCC6059, Muller-Hinton agar, 37° C., 20 hours
Procedure: as §1

[21] = tested on: Bacillus megaterium ATCC 9885; assay: as above; assay type: cell-based; details: Priestia megaterium, ATCC9885, 20 h
Procedure: as §1

[22] = tested on: Micrococcus luteus ATCC 9341; assay: as above; assay type: cell-based; details: ATCC9341, Muller-Hinton agar, 37° C., 20 hours
Procedure: as §1

[23] = tested on: Staphylococcus epidermidis ATCC 10537; assay: as above; assay type: cell-based; details: ATCC10537, Muller-Hinton agar, 37° C., 20 hours
Procedure: as §1

[24] = tested on: Acinetobacter calcoaceticus ATCC 15473; assay: as above; assay type: cell-based; details: ATCC15473, Muller-Hinton agar, 37° C., 20 hours
Procedure: as §1

[25] = tested on: Pseudomonas aerugionsa ATCC 10145; assay: as above; assay type: cell-based; details: ATCC10145, Muller-Hinton agar, 37° C., 20 hours
Procedure: as §1

[26] = tested on: Enterobacter aerogenes ATCC 29751; assay: as above; assay type: cell-based; details: Klebsiella aerogenes, ATCC29751, 20 h
Procedure: as §1

Row | SMILES | half-life ([1]; read-out: T1/1(β)) | half-life ([1]; read-out: T1/2(α)) | concentration at 1 min [1] | concentration at 2.5 min [1] | concentration at 5 min [1] | concentration at 10 min [1] | concentration at 20 min [1] | concentration at 40 min [1] | concentration at 1 h [1] | concentration at 2 h [1] | concentration at 3 h [1] | AUC [1] | dose excreted [1] | LD50 at 336 h [2] | MIC [3] | MIC [4] | MIC [5] | MIC [6] | MIC [7] | MIC [8] | further results
1 | C[C@@H](O/N=C(\C(=O)NC1C(=O)N2C(C(=O)[O-])=C(CSc3nc(N)cc(N)[n+]3N)CS[C@H]12)c1csc(N)n1)C(=O)O (stereo partly drawn) [I-R-1, 7-[(Z)-2-(2-aminothiazol-4-yl)-2-[(R)-1-carboxyeth-1-oxyimino]acetamido]-3-[(1,4,6-triaminopyrimidinium-2-yl)thiomethyl]-3-cephem-4-carboxylate] | 30 min | 4.7 min | 170000 ng/mL | 102000 ng/mL | 76900 ng/mL | 57000 ng/mL | 39100 ng/mL | 17700 ng/mL | 10100 ng/mL | 2500 ng/mL | 700 ng/mL | 45800 ng·h/mL | 91% | > 5000 mg/kg | 0.063 µg/mL (≈ 0.103 µM) | 1 µg/mL (≈ 1.64 µM) | 0.031 µg/mL (≈ 0.0508 µM) | 0.016 µg/mL (≈ 0.0262 µM) | 8 µg/mL (≈ 13.1 µM) | 0.031 µg/mL (≈ 0.0508 µM) | MIC [9]: > 128 µg/mL; MIC [10]: ≤ 0.008 µg/mL; MIC [11]: 0.031 µg/mL (≈ 0.0508 µM); MIC [12]: ≤ 0.008 µg/mL; MIC [13]: 0.031 µg/mL (≈ 0.0508 µM); MIC (ATCC 12228): 2 µg/mL (≈ 3.28 µM); MIC [14]: 0.016 µg/mL (≈ 0.0262 µM); MIC [15]: 0.031 µg/mL (≈ 0.0508 µM); MIC [16]: 128 µg/mL (≈ 210 µM); MIC [17]: 0.031 µg/mL (≈ 0.0508 µM); MIC [18]: 0.5 µg/mL (≈ 0.819 µM); MIC [19]: ≤ 0.008 µg/mL; MIC [20]: 0.031 µg/mL (≈ 0.0508 µM); MIC [21]: 0.5 µg/mL (≈ 0.819 µM); MIC [22]: 1 µg/mL (≈ 1.64 µM); MIC [23]: 4 µg/mL (≈ 6.55 µM); MIC [24]: 2 µg/mL (≈ 3.28 µM); MIC [25]: 2 µg/mL (≈ 3.28 µM); MIC [26]: 0.5 µg/mL (≈ 0.819 µM)
2 | C[C@H](O/N=C(\C(=O)NC1C(=O)N2C(C(=O)[O-])=C(CSc3nc(N)cc(N)[n+]3N)CS[C@H]12)c1csc(N)n1)C(=O)O (stereo partly drawn) [I-S-1, 7-[(Z)-2-(2-aminothiazol-4-yl)-2-[(S)-1-carboxyeth-1-oxyimino]acetamido]-3-[(1,4,6-triaminopyrimidinium-2-yl)thiomethyl]-3-cephem-4-carboxylate] | 37.5 min | 7.6 min | 147000 ng/mL | 102000 ng/mL | 72600 ng/mL | 57300 ng/mL | 37000 ng/mL | 19600 ng/mL | 11200 ng/mL | 3100 ng/mL | 1500 ng/mL | 47700 ng·h/mL | 93% | > 5000 mg/kg | 0.063 µg/mL (≈ 0.103 µM) | 0.5 µg/mL (≈ 0.819 µM) | 0.016 µg/mL (≈ 0.0262 µM) | 0.031 µg/mL (≈ 0.0508 µM) | 4 µg/mL (≈ 6.55 µM) | 0.031 µg/mL (≈ 0.0508 µM) | MIC [9]: > 128 µg/mL; MIC [10]: ≤ 0.008 µg/mL; MIC [11]: 0.031 µg/mL (≈ 0.0508 µM); MIC [12]: ≤ 0.008 µg/mL; MIC [13]: 0.031 µg/mL (≈ 0.0508 µM); MIC (ATCC 12228): 2 µg/mL (≈ 3.28 µM); MIC [14]: 0.016 µg/mL (≈ 0.0262 µM); MIC [15]: 0.031 µg/mL (≈ 0.0508 µM); MIC [16]: 32 µg/mL (≈ 52.4 µM); MIC [17]: 0.031 µg/mL (≈ 0.0508 µM); MIC [18]: 0.5 µg/mL (≈ 0.819 µM); MIC [19]: 0.016 µg/mL (≈ 0.0262 µM); MIC [20]: 0.016 µg/mL (≈ 0.0262 µM); MIC [21]: 0.13 µg/mL (≈ 0.213 µM); MIC [22]: 0.25 µg/mL (≈ 0.409 µM); MIC [23]: 2 µg/mL (≈ 3.28 µM); MIC [24]: 2 µg/mL (≈ 3.28 µM); MIC [25]: 1 µg/mL (≈ 1.64 µM); MIC [26]: 0.5 µg/mL (≈ 0.819 µM)
